Test results reported in patent US20230398227A1, “MEDICINE FOR TREATING CANCER” (CHIOME BIOSCIENCE INC., priority 2020, published 2023).

How the values were obtained:
[1] = system: Hep3B xenograft tumor; assay: Immunostaining for Ki-67 and cleaved caspase-3 in Hep3B xenograft tumor at 48 hours after administration; type: in vivo, NOD-SCID mice; settings: HuBA-1-3D 1 mg/kg i.p., H3B-6527 50 mg/kg, FGF-401 10 mg/kg, BLU-554 30 mg/kg oral, alone or combined
Experimental: (§1) Hep3B cells (1×10^6 cells) were transplanted subcutaneously into the right flank of NOD-SCID mice. At the stage where the tumor volume reached 250 to 350 mm 3, these mice were divided into the following 8 groups of 6 mice each, and administered from the same day: • the Vehicle group; • the group receiving HuBA-1-3D (1 mg/kg); • the group receiving H3B-6527 (50 mg/kg); • the group receiving FGF-401 (10 mg/kg); • the group receiving BLU-554 (30 mg/kg); • the group receiving HuBA-1-3D (1 mg/kg)+H3B-6527 (50 mg/kg); • the group receiving HuBA-1-3D (1 mg/kg)+FGF-401 (10 mg/kg); and • the group receiving HuBA-1-3D (1 mg/kg)+BLU-554 (30 mg/kg).
(§2) HuBA-1-3D was intraperitoneally administered, while FGFR4 inhibitors (H3B-6527, FGF-401 and BLU-554) were orally administered. At 48 hours after administration, three mice in each group were sacrificed to excise their tumors, and the tumors were fixed in 10% formalin and then embedded in paraffin to prepare sections for immunostaining. In addition, tissue extracts were prepared for Western blotting.
Cancer cell proliferation and apoptosis in the Hep3B tumor at 48 hours after administration were analyzed by immunostaining in which Ki-67 or cleaved caspase-3 expression was used as an indicator.

[2] = system: Hep3B xenograft tumor; assay: Western blotting of apoptosis markers and cyclin B1 in Hep3B xenograft tumor at 48 hours after administration; type: in vivo, NOD-SCID mice; settings: three animals per group, HuBA-1-3D 1 mg/kg, H3B-6527 50 mg/kg, FGF-401 10 mg/kg, BLU-554 30 mg/kg
Experimental: as §1, §2
Subsequently, apoptosis (cleaved caspase-3 and Cleaved PARP) and cancer cell proliferation (cyclin B1) in the Hep3B xenograft tumor upon administration of each agent were analyzed by Western blotting.

[3] = system: human hepatic cancer cell line Hep3B xenograft; assay: Antitumor effect in Hep3B xenograft therapeutic model, HuBA-1-3D and BLU-554; type: in vivo, mouse; settings: alone or combined
Excerpt: (§3) In an attempt to further verify the enhancing effect on antitumor activity upon combined administration of HuBA-1-3D antibody and FGFR4 inhibitor as in the case of the above examples, the antitumor effect obtained upon combined administration of BLU-554 and HuBA-1-3D was studied in a xenograft therapeutic model based on the human hepatic cancer cell line Hep3B, wherein BLU-554 inhibits FGFR4-specific tyrosine kinase activity by specifically binding to cysteine at amino acid position 552 of the ATP-binding region present in the region located at amino acid positions 545 to 562 of FGFR4 (Cancer Discov. 2019 December; 9(12):1696-1707), as in the case of H3B-6527 and FGF-401.
Hep3B cells (1×10^6 cells) were transplanted (Day 0), and at the point of time when the mean tumor volume exceeded 100 mm^3 (Day 14), animals were divided into the following 4 groups and administered from the same day: • the Vehicle group (N=8); • the group receiving BLU-554 (30 mg/kg body weight, twice a day) (N=8); • the group receiving HuBA-1-3D (1 mg/kg body weight) (N=8); and • the group receiving BLU-554 (30 mg/kg body weight) and HuBA-1-3D (1 mg/kg body weight) (N=8).
HuBA-1-3D was intraperitoneally administered once a day 4 times in total on Days 14, 17, 21 and 24, while BLU-554 was orally administered twice a day 10 times in total on Days 14, 15, 16, 17, 18, 21, 22, 23, 24 and 25. […]

[4] = system: human hepatic cancer cell line Hep3B xenograft; assay: Antitumor effect in Hep3B xenograft therapeutic model, HuBA-1-3D and H3B-6527; type: in vivo, NOD-scid mice; settings: alone or combined
Excerpt: The antitumor effect obtained upon combined administration of HuBA-1-3D antibody and H3B-6527 serving as a small molecule inhibitor against FGFR4 (Cancer Res. 2017 Dec. 15; 77(24):6999-7013) was studied in a xenograft therapeutic model based on the human hepatic cancer cell line Hep3B. • (1) Hep3B cells were transplanted subcutaneously into the right flank of NOD-scid mice (Day 0). At the stage where the mean tumor volume reached around 100 mm^3 (Day 14), the mice were divided into the following 6 groups, and administered from the same day for 11 days with HuBA-1-3D at a frequency of twice a week (Days 14, 18, 22 and 25) and/or with H3B-6527 twice a day (BID) and five times a week in a cycle of administration for 5 days and withdrawal for 2 days (Days 14, 15, 16, 17, 18, 21, 22, 23, 24 and 25): • the Vehicle group (N=8) • the group receiving H3B-6527 (50 mg/kg body weight, twice a day) (N=8); • the group receiving HuBA-1-3D (0.3 mg/kg body weight) (N=8); • the group receiving HuBA-1-3D (1 mg/kg body weight) (N=8); • the group receiving H3B-6527 (50 mg/kg body weight) and HuBA-1-3D (0.3 • mg/kg body weight) (N=8); and • the group receiving H3B-6527 (50 mg/kg body weight) and HuBA-1-3D (1 mg/kg body weight) (N=8).
The tumor volume was measured at a frequency of twice a week, and an animal whose tumor volume reached 1,500 mm^3 was excluded from observation.

[5] = system: human hepatic cancer cell line Hep3B xenograft; assay: Antitumor effect in Hep3B xenograft therapeutic model, HuBA-1-3D and FGF-401; type: in vivo, NOD-SCID mice; settings: alone or combined
Excerpt: as §3, with “Then, in” for “In”, “(FGF-401),” for “as in the case of the above examples,”, “FGF-401” for “BLU-554”, “(Mol. Cancer Ther.” for “(Cancer Discov.”, “18(12):2194-2206),” for “9(12):1696-1707),”, “H3B-6527.” for “H3B-6527 and FGF-401.”
Hep3B cells (1×10^6 cells) were transplanted subcutaneously into the right flank of NOD-SCID mice (Day 0). At the stage where the mean tumor volume exceeded 100 mm^3 (Day 14), the mice were divided into the following 6 groups, and administered from the same day: • the Vehicle group (N=8); • the group receiving FGF-401 (10 mg/kg body weight, twice a day) (N=8); • the group receiving HuBA-1-3D (0.3 mg/kg body weight) (N=8); • the group receiving HuBA-1-3D (1 mg/kg body weight) (N=8); • the group receiving FGF-401 (10 mg/kg body weight) and HuBA-1-3D (0.3 mg/kg body weight) (N=8); and • the group receiving FGF-401 (10 mg/kg body weight) and HuBA-1-3D (1 mg/kg body weight) (N=8).
HuBA-1-3D was intraperitoneally administered once a day 4 times in total on Days 14, 17, 21 and 24, while FGF-401 was orally administered twice a day 10 times in total on Days 14, 15, 16, 17, 18, 21, 22, 23, 24 and 25. The combined administration of HuBA-1-3D and FGF-401 was performed 4 times in total on Days 14, 17, 21 and 24. In each group, a mouse whose tumor volume exceeded 1,500 mm^3 was sacrificed at that point of time.

[6] = system: human hepatic cancer cell line Hep3B xenograft; assay: Antitumor effect in Hep3B xenograft therapeutic model, HuBA-1-3D and CH518324/Debio1347; type: in vivo, mice; settings: alone or combined
Excerpt: In each group, a mouse whose tumor volume exceeded 1,500 mm^3 was sacrificed at that point of time.

[7] = target: FGFR4 (Homo sapiens, UniProt P22455); settings: reported in Mol Cancer Ther (2014); 13(11); 2547-58; read-out: tyrosine kinase inhibitory activity (IC50) against FGFR4; cited from earlier work
FGFR4, sequence (P22455 22-802): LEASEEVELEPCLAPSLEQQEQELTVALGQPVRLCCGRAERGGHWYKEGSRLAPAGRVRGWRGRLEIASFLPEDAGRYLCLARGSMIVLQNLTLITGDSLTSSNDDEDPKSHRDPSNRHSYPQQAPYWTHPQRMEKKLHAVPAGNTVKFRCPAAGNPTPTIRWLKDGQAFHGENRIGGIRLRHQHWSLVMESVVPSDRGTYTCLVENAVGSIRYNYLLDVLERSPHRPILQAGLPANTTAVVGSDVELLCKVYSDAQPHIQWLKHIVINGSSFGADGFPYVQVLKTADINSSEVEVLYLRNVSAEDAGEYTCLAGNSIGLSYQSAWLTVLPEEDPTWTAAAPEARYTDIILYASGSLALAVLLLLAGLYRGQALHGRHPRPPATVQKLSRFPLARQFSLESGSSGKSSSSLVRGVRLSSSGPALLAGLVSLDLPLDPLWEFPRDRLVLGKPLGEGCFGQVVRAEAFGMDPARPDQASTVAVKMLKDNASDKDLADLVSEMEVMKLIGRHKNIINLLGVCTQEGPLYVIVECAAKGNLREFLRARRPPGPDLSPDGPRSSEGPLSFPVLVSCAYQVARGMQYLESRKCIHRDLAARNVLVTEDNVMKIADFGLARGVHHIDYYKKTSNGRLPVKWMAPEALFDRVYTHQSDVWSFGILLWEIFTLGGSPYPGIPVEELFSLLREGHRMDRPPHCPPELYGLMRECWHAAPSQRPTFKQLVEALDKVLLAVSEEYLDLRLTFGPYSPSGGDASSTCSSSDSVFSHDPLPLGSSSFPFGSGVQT

## C=CC(=O)N[C@H]1CCOC[C@H]1Nc1ncc2cc(-c3c(Cl)c(OC)cc(OC)c3Cl)ccc2n1 [BLU-554, N-[(3 S,4S)-3-[[6-(2,6-dichloro-3,5-dimethoxyphenyl)quinazolin-2-yl]amino]oxan-4-yl]prop-2-enamide]
[1]
  apoptotic cells stained with cleaved caspase-3 in the tumor: not detected
  proportion of cancer cells stained with Ki-67 compared to the Vehicle group: no change
[2]
  expression level of cyclin B1 (cell proliferation marker) compared to the Vehicle group: no difference
  expression of apoptosis markers (Cleaved caspase-3 and cleaved PARP): induced in none of the three animals
[3]; Day 38 (13 days after final administration), BLU-554 30 mg/kg twice a day oral, HuBA-1-3D 1 mg/kg i.p.
  mean tumor volume: 688.8±562.4 mm^3
[3]; Day 38, vs Vehicle, BLU-554 30 mg/kg, HuBA-1-3D 1 mg/kg
  T/C: 63.7%

## C=CC(=O)Nc1cc(N2CCN(CC)CC2)ccc1Nc1cc(N(C)C(=O)Nc2c(Cl)c(OC)cc(OC)c2Cl)ncn1 [H3B-6527, N-{2-[(6-{[(2,6-dichloro-3,5-dimethoxyphenyl)carbamoyl](methyl)amino}-4-pyrimidinyl)amino]-5-(4-ethyl-1-piperazinyl)phenyl}acrylamide]
[1]
  apoptotic cells stained with cleaved caspase-3 in the tumor: not detected
  proportion of cancer cells stained with Ki-67 compared to the Vehicle group: no change
[2]
  expression level of cyclin B1 (cell proliferation marker) compared to the Vehicle group: no difference
  expression of apoptosis markers (Cleaved caspase-3 and cleaved PARP): induced in none of the three animals
[4]; Day 32 (7 days after completion of administration), H3B-6527 50 mg/kg twice a day, HuBA-1-3D 1 mg/kg twice a week
  tumor volume: 647.8±146.2 mm^3
[4]; Day 32, vs Vehicle, H3B-6527 50 mg/kg twice a day, HuBA-1-3D 1 mg/kg
  T/C: 47%
[4]; Day 38 (13 days after final administration), H3B-6527 50 mg/kg, HuBA-1-3D 1 mg/kg
  tumor volume: 1222.0±326.5 mm^3
[4]; Day 38, H3B-6527 50 mg/kg, HuBA-1-3D 1 mg/kg
  tumor presence / tumor disappearance at excision (animals): all the 8 animals in each group were confirmed to have tumor
[4]; tumors excised on Day 38, H3B-6527 50 mg/kg, HuBA-1-3D 1 mg/kg
  tumor weight: 1.010 ± 0.260 g

## COCCNc1cc(NC(=O)N2CCCc3cc(CN4CCN(C)CC4=O)c(C=O)nc32)ncc1C#N [FGF-401, N-[5-cyano-4-[(2-methoxyethyl)amino]-2-pyridinyl]-7-formyl-3,4-dihydro-6-[(4-methyl-2-oxo-1-piperazinyl)methyl]-1,8-naphthyridine-1(2H)-carboxamide]
[1]
  apoptotic cells stained with cleaved caspase-3 in the tumor: not detected
  proportion of cancer cells stained with Ki-67 compared to the Vehicle group: no change
[2]
  expression level of cyclin B1 (cell proliferation marker) compared to the Vehicle group: no difference
  expression of apoptosis markers (Cleaved caspase-3 and cleaved PARP): induced in none of the three animals
[5]; Day 28 (3 days after final administration), FGF-401 10 mg/kg twice a day oral, HuBA-1-3D 1 mg/kg i.p.
  tumor volume: 388.9±94.8 mm^3
[5]; Day 28, vs Vehicle, FGF-401 10 mg/kg, HuBA-1-3D 1 mg/kg
  T/C: 56.8%
[5]; Day 35 (10 days after final administration), FGF-401 10 mg/kg, HuBA-1-3D 1 mg/kg, Dunnett
  antitumor effect compared to tumor volume in the Vehicle group: significant antitumor effect

## Cc1nc2ccc(-n3ncc(C(=O)c4cc5ccccc5[nH]4)c3N)cc2[nH]1 [CH518324/Debio1347]
[6]; Day 31 (6 days after final administration), CH518324/Debio1347 50 mg/kg once a day oral, HuBA-1-3D 1 mg/kg i.p.
  mean tumor volume: 673.8±271.8 mm^3
[6]; Day 31, vs Vehicle, CH518324/Debio1347 50 mg/kg, HuBA-1-3D 1 mg/kg
  T/C: 56.2%
[7]
  IC50: 290 nM
